Laboratory results as given in ChEMBL document CHEMBL1201862, “PubChem BioAssay data set” (2004).
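Protocol summary: plate cells (96-well), add compound at 5 concentrations, incubate 48 h, interpolate endpoints linearly. GI50 = concentration required for 50% inhibition of growth.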 Calls of active or inactive are those of the source. No stated cut-off is given here; in the data, active = GI50 up to about 1.1 µM and inactive = higher.

Experiments:
Experiment in all cases: inhibition of tumour cell growth, NCI panel, 48 h
SW-620 = tested on: SW-620
NCI-H23 = tested on: NCI-H23
OVCAR-5 = tested on: OVCAR-5
MOLT-4 = tested on: MOLT-4
DLD-1 = tested on: DLD-1
SF-268 = tested on: SF-268
CCRF-CEM = tested on: CCRF-CEM
SNB-19 = tested on: SNB-19
OVCAR-4 = tested on: OVCAR-4
A498 = tested on: A498
NCI-H460 = tested on: NCI-H460
Malme-3M = tested on: Malme-3M
IGROV-1 = tested on: IGROV-1
HCT-116 = tested on: HCT-116
SK-OV-3 = tested on: SK-OV-3
SK-MEL-28 = tested on: SK-MEL-28
U-251 = tested on: U-251
HCC 2998 = tested on: HCC 2998

| Compound | GI50 (SW-620) | GI50 (NCI-H23) | GI50 (OVCAR-5) | GI50 (MOLT-4) | GI50 (DLD-1) | GI50 (SF-268) | GI50 (CCRF-CEM) | GI50 (SNB-19) | GI50 (OVCAR-4) | GI50 (A498) | GI50 (NCI-H460) | GI50 (Malme-3M) | GI50 (IGROV-1) | GI50 (HCT-116) | GI50 (SK-OV-3) | GI50 (SK-MEL-28) | GI50 (U-251) | GI50 (HCC 2998) |
| --- | --- | --- | --- | --- | --- | --- | --- | --- | --- | --- | --- | --- | --- | --- | --- | --- | --- | --- |
| C=CCCCCn1c2ccccc2c2c(C)c3c[n+](C)ccc3c(C)c21 | 0.296 µM (active) | 0.382 µM (active) | 1.07 µM (active) | 0.298 µM (active) | 0.607 µM (active) | 0.366 µM (active) | 0.335 µM (active) | 0.412 µM (active) | 0.284 µM (active) | 1.44 µM (inactive) | 0.356 µM (active) | 0.275 µM (active) | 0.252 µM (active) | 0.244 µM (active) | 1.2 µM (inactive) | 0.426 µM (active) | 0.197 µM (active) | – |
| Nc1ncnc(NC2C=C(CO)C(O)C2O)c1[N+](=O)[O-] (configuration not stated) | 28.1 µM (inactive) | > 100 µM (inactive) | > 100 µM (inactive) | > 100 µM (inactive) | > 100 µM (inactive) | > 100 µM (inactive) | > 100 µM (inactive) | > 100 µM (inactive) | > 100 µM (inactive) | > 100 µM (inactive) | > 100 µM (inactive) | – | > 100 µM (inactive) | 32.9 µM (inactive) | > 100 µM (inactive) | > 100 µM (inactive) | > 100 µM (inactive) | > 100 µM (inactive) |
| O=C(OC1CC(n2cc(F)c(=O)[nH]c2=O)OC1CSC(=O)c1ccccc1)c1ccccc1 (configuration not stated) | 30.8 µM (inactive) | 26.4 µM (inactive) | 61.8 µM (inactive) | 25.7 µM (inactive) | 33.8 µM (inactive) | 25.4 µM (inactive) | 37.2 µM (inactive) | 59.7 µM (inactive) | 16.6 µM (inactive) | 41.6 µM (inactive) | 35.3 µM (inactive) | 28.7 µM (inactive) | 56.2 µM (inactive) | 34.8 µM (inactive) | > 100 µM (inactive) | 48 µM (inactive) | 17.6 µM (inactive) | 4.85 µM (inactive) |
| Nc1nc(CCC(=O)Nc2cccc(C(F)(F)F)c2)cc(-c2ccc3ccccc3c2)n1 | > 100 µM (inactive) | > 100 µM (inactive) | > 100 µM (inactive) | > 100 µM (inactive) | > 100 µM (inactive) | > 100 µM (inactive) | > 100 µM (inactive) | > 100 µM (inactive) | > 100 µM (inactive) | > 100 µM (inactive) | > 100 µM (inactive) | > 100 µM (inactive) | > 100 µM (inactive) | > 100 µM (inactive) | > 100 µM (inactive) | > 100 µM (inactive) | > 100 µM (inactive) | > 100 µM (inactive) |
| COC1CCC(OC)C(C2(C3CC(OC)CCC3OC)OC(=O)c3ccccc32)C1 (configuration not stated) | 59.2 µM (inactive) | 80.7 µM (inactive) | > 100 µM (inactive) | 14.6 µM (inactive) | > 100 µM (inactive) | > 100 µM (inactive) | – | > 100 µM (inactive) | 70.8 µM (inactive) | > 100 µM (inactive) | 86.3 µM (inactive) | > 100 µM (inactive) | 68.4 µM (inactive) | > 100 µM (inactive) | > 100 µM (inactive) | – | 93.8 µM (inactive) | 66.4 µM (inactive) |
| COC1(OC)CCC2C1C1CCC(OC)(OC)C21 (configuration not stated) | > 50 µM (inactive) | > 50 µM (inactive) | > 50 µM (inactive) | > 50 µM (inactive) | > 50 µM (inactive) | > 50 µM (inactive) | > 50 µM (inactive) | > 50 µM (inactive) | > 50 µM (inactive) | > 50 µM (inactive) | – | > 50 µM (inactive) | > 50 µM (inactive) | > 50 µM (inactive) | > 50 µM (inactive) | > 50 µM (inactive) | > 50 µM (inactive) | > 50 µM (inactive) |
| c1ccc2c(C3NCCc4nc[nH]c43)cccc2c1 (configuration not stated) | > 100 µM (inactive) | > 100 µM (inactive) | > 100 µM (inactive) | > 100 µM (inactive) | > 100 µM (inactive) | > 100 µM (inactive) | > 100 µM (inactive) | – | > 100 µM (inactive) | > 100 µM (inactive) | > 100 µM (inactive) | – | > 100 µM (inactive) | > 100 µM (inactive) | > 100 µM (inactive) | > 100 µM (inactive) | > 100 µM (inactive) | > 100 µM (inactive) |
| COC1=CC(=O)C2C(C1=O)[C@@H]1c3ccccc3C[C@H]21 (some centres not stated) | > 100 µM (inactive) | > 100 µM (inactive) | > 100 µM (inactive) | > 100 µM (inactive) | > 100 µM (inactive) | > 100 µM (inactive) | > 100 µM (inactive) | > 100 µM (inactive) | > 100 µM (inactive) | > 100 µM (inactive) | > 100 µM (inactive) | > 100 µM (inactive) | > 100 µM (inactive) | – | > 100 µM (inactive) | > 100 µM (inactive) | > 100 µM (inactive) | > 100 µM (inactive) |
| CC(=O)OCCOCNC(=S)N/N=C(\C)c1cnccn1 | 23.9 µM (inactive) | 58.2 µM (inactive) | 7.53 µM (inactive) | 14.1 µM (inactive) | 34.3 µM (inactive) | 17.5 µM (inactive) | 13 µM (inactive) | 73.1 µM (inactive) | > 100 µM (inactive) | 58.6 µM (inactive) | 20.9 µM (inactive) | 30.2 µM (inactive) | 26.9 µM (inactive) | 34.3 µM (inactive) | 46.5 µM (inactive) | 42.5 µM (inactive) | 29.6 µM (inactive) | 29 µM (inactive) |
| CC(C)C(/N=C1\CC2CCC1(C(=O)Nc1ccccc1O)C2(C)C)c1ccccc1 (configuration not stated) | 4.8 µM (inactive) | 7.67 µM (inactive) | > 10 µM (inactive) | 3.18 µM (inactive) | > 10 µM (inactive) | > 10 µM (inactive) | > 10 µM (inactive) | > 10 µM (inactive) | > 10 µM (inactive) | > 10 µM (inactive) | 7.67 µM (inactive) | > 10 µM (inactive) | > 10 µM (inactive) | 6.61 µM (inactive) | > 10 µM (inactive) | > 10 µM (inactive) | > 10 µM (inactive) | > 10 µM (inactive) |
| CCOC(=O)C1S/C(=N\c2cccc(Cl)c2C)N=C1C (configuration not stated) | 28.4 µM (inactive) | > 10 µM (inactive) | 18.7 µM (inactive) | 29.7 µM (inactive) | > 10 µM (inactive) | 30.5 µM (inactive) | – | 31.4 µM (inactive) | 31 µM (inactive) | 34.2 µM (inactive) | 33 µM (inactive) | 19.6 µM (inactive) | 31.3 µM (inactive) | 22.8 µM (inactive) | – | 40 µM (inactive) | 15.1 µM (inactive) | > 10 µM (inactive) |
| CC(=O)OCC1OC(n2ccc(=O)[nH]c2=O)C(OC(C)=O)C(OC(C)=O)C1OC(C)=O (configuration not stated) | > 100 µM (inactive) | > 100 µM (inactive) | > 100 µM (inactive) | > 10 µM (inactive) | > 100 µM (inactive) | > 100 µM (inactive) | > 100 µM (inactive) | > 100 µM (inactive) | > 100 µM (inactive) | > 100 µM (inactive) | > 100 µM (inactive) | > 100 µM (inactive) | > 100 µM (inactive) | > 100 µM (inactive) | > 100 µM (inactive) | > 100 µM (inactive) | > 100 µM (inactive) | > 100 µM (inactive) |
| NC(=O)C(N)=O | > 100 µM (inactive) | > 100 µM (inactive) | > 100 µM (inactive) | > 100 µM (inactive) | > 100 µM (inactive) | > 100 µM (inactive) | > 100 µM (inactive) | > 100 µM (inactive) | – | > 100 µM (inactive) | > 100 µM (inactive) | > 100 µM (inactive) | – | > 100 µM (inactive) | > 100 µM (inactive) | > 100 µM (inactive) | > 100 µM (inactive) | > 100 µM (inactive) |
| NNC(=O)CNC(=O)c1ccc(Cl)cc1Cl | 15.8 µM (inactive) | > 100 µM (inactive) | > 100 µM (inactive) | > 100 µM (inactive) | > 100 µM (inactive) | > 100 µM (inactive) | > 100 µM (inactive) | > 100 µM (inactive) | > 100 µM (inactive) | > 100 µM (inactive) | > 100 µM (inactive) | > 100 µM (inactive) | > 100 µM (inactive) | 39.4 µM (inactive) | > 100 µM (inactive) | > 100 µM (inactive) | 39.6 µM (inactive) | > 100 µM (inactive) |
| COC12CCC(C(C(=O)c3ccccc3)=C1C(=O)c1ccccc1)C(O)C2 (configuration not stated) | > 100 µM (inactive) | > 100 µM (inactive) | – | > 100 µM (inactive) | > 100 µM (inactive) | > 100 µM (inactive) | > 100 µM (inactive) | > 100 µM (inactive) | > 100 µM (inactive) | 67.3 µM (inactive) | – | > 100 µM (inactive) | > 100 µM (inactive) | > 100 µM (inactive) | > 100 µM (inactive) | > 100 µM (inactive) | – | > 100 µM (inactive) |
| CCCCN(CCCC)C(=O)C(=O)CC(=O)c1ccc(Br)cc1 | > 100 µM (inactive) | > 100 µM (inactive) | > 100 µM (inactive) | > 100 µM (inactive) | > 100 µM (inactive) | > 100 µM (inactive) | > 100 µM (inactive) | > 100 µM (inactive) | > 100 µM (inactive) | > 100 µM (inactive) | > 100 µM (inactive) | > 100 µM (inactive) | > 100 µM (inactive) | > 100 µM (inactive) | > 100 µM (inactive) | – | > 100 µM (inactive) | > 100 µM (inactive) |
